Test results taken from patent US8859583B2, “Bicyclic heterocyclic compounds as protein tyrosine kinase inhibitors” (Astex Therapeutics Limited, priority 2007, dated 2014).
Structures can show the parent of a compound that is named as a salt.

Tests used:
[1] = system: LP-1 cell line (DSMZ no.: ACC 41) derived from human multiple myeloma; experiment: Cell-based pERK ELISA in LP-1 cells; settings: LP-1, FGF-1/Heparin stimulated, for the 1 μM bound: or at least 50% inhibition at a concentration of 1 μM
Procedure: Enzyme buffer A: 8 mM MOPS, pH 7.0, 0.2 mM EDTA, 10 mM MgAcetate Enzyme buffer B: 8 mM MOPS, pH 7.0, 0.2 mM EDTA, 2.5 mM MnCl2, 10 mM MgAcetate Enzyme buffer C: 8 mM Mops, pH 7.0, 0.2 mM EDTA, 10 mM MnCl2, 10 mM MgAcetate. Cell-Based pERK ELISA Method
LP-1 or JIM-1 multiple myeloma cells were seeded in 96 well plates at 1×10^6 cells/ml in 200 ul per well in serum free media. HUVEC cells were seeded at 2.5×10^5 cells/ml and allowed to recover for 24 h prior to transfer to serum free media. Cells were incubated for 16 h at 37° C. prior to the addition of a test compound for 30 minutes. Test compounds were administered at a 0.1% final DMSO concentration. Following this 30 minute incubation a FGF-1/Heparin (FGF-1 at 100 ng/ml final and Heparin at 100 ug/ml) mixture or VEGF^165 (100 ug/ml) was added to each of the wells for a further 5 minutes. The media was removed and 50 ul ERK ELISA lysis buffer (R and D Systems DuoSet ELISA for pERK and Total ERK #DYC-1940E, DYC-1018E) added. ELISA plates and standards were prepared according to the standard DuoSet protocols and the relative amounts of pERK to total ERK in each sample calculated according to the standard curve.
In particular, compounds of the invention were tested against the LP-1 cell line (DSMZ no.: ACC 41) derived from human multiple myeloma.

[2] = system: Ba/F3-TEL-FGFR3 cell line; experiment: Ba/F3-TEL-FGFR3 cell proliferation assay; assay type: cell-based; settings: 72 hours, Alamar Blue; read-out: IC50 against Ba/F3-TEL-FGFR3 cell line
Procedure: Ba/F3-TEL-FGFR3 & Ba/F3 (WT) Cell Proliferation Assays
Stably transfected Ba/F3-TEL-FGFR3 cells were plated out into black 96-well tissue culture plates with clear bottoms in RPMI medium containing 10% FBS and 0.25 mg/ml G418 at a density of 5×10^3 cells/well (200 μl per well). The parental wild-type Ba/F3 cells (DSMZ no.: ACC 300) were plated out into black 96-well tissue culture plates with clear bottoms in RPMI medium containing 10% FBS and 2 ng/ml mouse IL-3 (R&D Systems) at a density of 2.5×10^3 cells/well (200 μl per well). Plates were placed in an incubator overnight before adding the compounds the following day. Dilutions of compounds were made in DMSO starting at 10 mM and were diluted into the wells to give a final DMSO concentration of 0.1% in assay. Compounds were left on the cells for 72 hours before the plates were removed from the incubator and 20 μl of Alamar Blue™ (Biosource) was added to each well. Plates were placed in the incubator for 4-6 hours before reading plates at 535 nm (excitation)/590 nm (emission) on a Fusion plate reader (Packard).
In particular, compounds of the invention were tested against the Ba/F3-TEL-FGFR3 cell line.

| IC50 [1] | melting point | SMILES | also measured |
| --- | --- | --- | --- |
|  | > 260 °C | Cn1cncc1CNC(=O)c1ccn2c(-c3cccc(NC(=O)NCC(F)(F)F)c3)cnc2c1 [Example 20, 3-{3-[2,2,2-Trifluoro-ethyl)-ureido]-imidazo[1,2-a]pyridine-7-[5-(1-N-methyl-imidazole)]-methylamide] |  |
|  | 260 °C | Cn1cncc1NC(=O)c1ccn2c(-c3cccc(NC(=O)NCC(F)(F)F)c3)cnc2c1 [Example 18, 3-{3-[2,2,2-Trifluoro-ethyl)-ureido]-imidazo[1,2-a]pyridine-7-[5-(1-N-methyl-imidazole)]-amide] |  |
| < 20 µM |  | CC(CO)NC(=O)c1ccn2c(-c3cccc(NC(=O)NCC(F)(F)F)c3)cnc2c1 (stereo not shown) [Example 17, 3-{3-[3-(2,2,2-Trifluoro-ethyl)-ureido]-phenyl}-imidazo[1,2-a]pyridine-7-carboxylic acid (2-hydroxy-1-methyl-ethyl)-amide] |  |
| < 20 µM |  | CNC(=O)c1ccn2c(-c3cccc(NC(=O)NCC(F)(F)F)c3)cnc2c1 [Example 2, 3-[3-[3-(2,2,2-Trifluoroethyl)ureido]-phenyl}imidazo[1,2-a]pyridine-7-carboxylic acid methylamide] |  |

The remaining lines, values behind:

| SMILES | IC50 [1] | melting point | also measured |
| --- | --- | --- | --- |
| O=C(NCC(F)(F)F)Nc1cccc(-c2cnc3cc(C(=O)N4CCC(O)C4)ccn23)c1 (stereo not shown) [Example 7, 1-{3-[7-(3-Hydroxy-pyrrolidine-1-carbonyl)-imidazo[1,2-a]pyridin-3-yl]-phenyl}-3-(2,2,2-trifluoro-ethyl)-urea] | < 20 µM |  |  |
| CN(C)C(=O)c1ccn2c(-c3cccc(NC(=O)NCC(F)(F)F)c3)cnc2c1 [Example 1, 3-[3-[3-(2,2,2-Trifluoroethyl)ureido]-phenyl}imidazo[1,2-a]pyridine-7-carboxylic acid dimethylamide Hydrochloride] |  |  | IC50 [2]: < 20 µM |
| O=C(NCC(F)(F)F)Nc1cccc(-c2cnc3cc(C(=O)NCCCc4cnc[nH]4)ccn23)c1 [Example 19, 3-{3-[2,2,2-Trifluoro-ethyl)-ureido]-imidazo[1,2-a]pyridine-7-[3-(1H-imidazol-4-yl)]-propanamide] |  | 170 °C |  |
